Experimental findings from patent US4897382A, “Organic amide compounds derived from nitrogenous lipids” (priority 1981, dated 1990) are described below.

The subject of assay [1] is prolactin. Description: Hypoprolactinemic effect in rats, serum prolactin by RIA, at the circadian peak at 4 p.m. The conditions noted are these: for inhibition in vivo at 0.5 mg/kg / inhibition in vivo at 5 mg/kg: Rattus norvegicus; for in vivo (hypoprolactinemic) activity, in words: rats, summary statement.
The target in assay [2] is T1, dopamine receptors (Rattus norvegicus, UniProt P61169).
T1 construct: on hypophysis sinaptosomal rat membranes; from tissue; host or cells: rat hypophysis (pituitary), synaptosomal membranes
T1 sequence (P61169 whole entry): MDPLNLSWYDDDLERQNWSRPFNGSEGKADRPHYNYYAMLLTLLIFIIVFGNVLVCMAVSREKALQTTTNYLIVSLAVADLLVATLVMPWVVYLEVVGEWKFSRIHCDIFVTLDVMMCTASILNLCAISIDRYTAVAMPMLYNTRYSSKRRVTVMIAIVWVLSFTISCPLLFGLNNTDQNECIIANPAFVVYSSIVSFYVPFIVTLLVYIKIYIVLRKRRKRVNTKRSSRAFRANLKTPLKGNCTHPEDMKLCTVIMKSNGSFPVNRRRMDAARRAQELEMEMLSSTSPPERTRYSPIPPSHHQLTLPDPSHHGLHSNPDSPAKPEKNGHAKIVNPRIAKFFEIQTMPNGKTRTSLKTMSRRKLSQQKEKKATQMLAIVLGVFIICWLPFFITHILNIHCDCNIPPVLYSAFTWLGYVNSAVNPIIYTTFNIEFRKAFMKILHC
Description: Binding of (^3H)-spiroperidole to hypophysis membranes of rat. The following applies: for binding power / in vitro activity, in words: compared to the parent acid or lipid alone; for activity at 1 µM: test substance 10^-6 M; for activity at 0.1 µM: test substance 10^-7 M. On the procedure: The in vitro biological activity was determined by comparative tests measuring the binding power of the labelled spiroperidole (^3 H)-spiroperidole on hypophysis sinaptosomal rat membranes according to the method described by Greese et al (GREESE I., SCHNEIDER R. and SNYDER S. H.; H-spiroperidole labels dopamine receptors in pituitary and brain; Europ. J. Pharmacol. 46, 377-381 (1977)).

Assay [3] relates to prolactin. Description: Hypoprolactinemic effect in rats, serum prolactin by RIA, sulpiride-treated (hyperprolactinemic) animals. The following applies: for inhibition in vivo at 0.5 mg/kg / inhibition in vivo at 5 mg/kg: Rattus norvegicus; for inhibition in vivo at 0.5 mg/kg: read-out: Prolactin Inhibition %, sulpiride 10 γ/kg + 0.5 mg/kg test substance; for inhibition in vivo at 5 mg/kg: read-out: Prolactin Inhibition %, sulpiride 10 γ/kg + 5.0 mg/kg test substance.

A short description of assay [4]: General pharmacological activity in vitro and in vivo. The following applies: tested in vitro and in vivo in laboratory animals.
A short description of assay [5]: Anticonvulsant effects in rat (isoniazide convulsions). It is filed as in vivo. On the procedure: The in vivo activity of Product 1 was measured by the method described by Costa et al (E. Costa, A. Guidotti and C. C. Mao; "Evidence for involvement of GABA in the Action of Benzodiazepines: Studies in Rat Cerebellum" in Mechanism of Action of Benzodiazepines; Ed. by E. Costa and P. Greengard, New York, Raven Press. pp. 113-130 (1975)) and by Loescher and Frey (Loesher, W. and Frey, H. H.; "Effect of convulsant and anticonvulsant agents on level and metabolism of gamma-aminobutyric acid in mouse brain"; Naunyn-Schmiedeberg's Arch. Pharmacol. 296, 263-269 (1977)). These tests are based on the known activity of isoniazide to cause convulsions and a lowering of the GABA cerebral levels and the glutamic-decarboxylase enzyme activity.

Assay [6] has as its system synaptic membranes of the rat cortex. Description: Binding of ^3H-GABA on synaptic membranes of the rat cortex (method of Enna and Snyder). The conditions noted are these: for Product bound % (^3H-GABA binding on rat cortex membranes): ^3H-GABA 2.10^-8 M. An excerpt: Table I presents the results of these tests, expressed in percentage of the fixed active product, comparing the in vitro activity of Product 1 with the activities of the individual components which comprise Product 1.

Setting [7] is: 0.5 mg/kg, circadian peak at 4 p.m.
Setting [8] is: 5.0 mg/kg, circadian peak at 4 p.m.
The mark [9] stands for this setting: read-out: Prolactin Inhibition %, 0.5 mg/kg, circadian peak at 4 p.m.
Where [10] appears, read: read-out: Prolactin Inhibition %, 5.0 mg/kg, circadian peak at 4 p.m.
Where [11] appears, read: read-out: Product bound % ((^3H) spiroperidole binding to hypophysis membranes), (^3H) spiroperidole 2.10^-9 M (2 nM), test substance 10^-4 M.
Where [12] appears, read: read-out: Product bound % ((^3H) spiroperidole binding to hypophysis membranes), (^3H) spiroperidole 2.10^-9 M (2 nM), test substance 10^-5 M.
The mark [13] stands for this setting: read-out: Product bound % ((^3H) spiroperidole binding to hypophysis membranes), (^3H) spiroperidole 2.10^-9 M (2 nM).
Setting [14] is: sulpiride 10 γ/kg + 0.5 mg/kg test substance.
Where [15] appears, read: sulpiride 10 γ/kg + 5.0 mg/kg test substance.
The mark [16] stands for this setting: isoniazide 160 mg/kg (s.c.) alone.
Setting [17] is: read-out: Prolactin Inhibition %.
The mark [18] stands for this setting: (^3H) spiroperidole 2.10^-9 M (2 nM), test substance 10^-4 M, read-out: Product bound % ((^3H) spiroperidole binding to hypophysis membranes).
Where [19] appears, read: (^3H) spiroperidole 2.10^-9 M (2 nM), test substance 10^-5 M, read-out: Product bound % ((^3H) spiroperidole binding to hypophysis membranes).
Setting [20] is: (^3H) spiroperidole 2.10^-9 M (2 nM), read-out: Product bound % ((^3H) spiroperidole binding to hypophysis membranes).
Where [21] appears, read: isoniazide 160 mg/kg (s.c.) + sphingosine 12 mg/kg (i.p.).

Molecules are shown by their SMILES. Entries after “also recorded” stand apart in the source; their conditions may differ. Read-outs that look alike come from different tables or passages of the source.

As for `CCCCCCCCCCCCCCCC(O)C(CO)NC(=O)C1CC2c3cccc4[nH]cc(c34)CC2N(C)C1` (centres unmarked) [Product 15, Dihydrolysergyldihydrosphingosine amide], the Prolactin in assay [1] (setting [7]) is 40.0 ± 5.6 ng/mL; in assay [1] (setting [8]), 31.0 ± 3.4 ng/mL; in assay [3] (setting [14]), 48.0 ± 4.0 ng/mL; in assay [3] (setting [15]), 39.0 ± 6.0 ng/mL. Moreover, the values for the inhibition in vivo at 0.5 mg/kg in assay [1] (setting [9]) and in assay [3] were 35% and 44%, respectively. The inhibition in vivo at 5 mg/kg in assay [1] (setting [10]) was 50%; in assay [3], 55%. The “in vivo (hypoprolactinemic) activity, in words” value (shortened to “in vivo … in words”) in assay [1] is on record as “far superior to either dihydrolysergic acid or dihydrosphingosine alone”. For the same molecule, the “binding power / in vitro activity, in words” value in assay [2] was “far superior to either dihydrolysergic acid or dihydrosphingosine alone”. In addition, in assay [2] (setting [11]), the activity at 100 µM came to 20%. For the same molecule, the activity at 10 µM in assay [2] (setting [12]) is 30%. The activity at 1 µM in assay [2] (setting [13]) was determined as 90%. Further, in assay [2] (setting [13]), the activity at 0.1 µM is 100%. For the same molecule, the “action in the central nervous system, in words” value in assay [4] is recorded as “capable of acting directly in the central nervous system”.
For the molecule `CN1C[C@@H](C(=O)O)C=C2c3cccc4[nH]cc(c34)C[C@H]21` [isolysergic acid], in assay [1], the “in vivo … in words” value is “essentially inactive when administered alone”.
Turning to `NNC(=O)c1ccncc1` [Isoniazide, isoniazide], in assay [5] (setting [16]), the “Latency of the convulsions measured” value came out at 3070 ± 110 s, the “Number of animals in convulsions” value is 26/30 and the “Number of dead animals” value amounted to 15.
With `CN1C[C@H](C(=O)O)CC2c3cccc4[nH]cc(c34)C[C@H]21` (some centres unmarked) [dihydrolysergic acid], the inhibition in vivo at 0.5 mg/kg in assay [1] (setting [9]) and in assay [3] was 0% throughout. The inhibition in vivo at 5 mg/kg in assay [1] (setting [10]) is 25%. Besides, in assay [1], the “in vivo … in words” value is “weak effect; also recorded: essentially inactive when administered alone”. In addition, the “Product bound % ((^3H) spiroperidole binding to hypophysis membranes)” value in assay [2] ((^3H) spiroperidole 2.10^-9 M (2 nM), test substance 10^-4 M, 100 µM) amounted to 60%; in assay [2] ((^3H) spiroperidole 2.10^-9 M (2 nM), test substance 10^-5 M, 10 µM), 90%. In addition, the activity at 100 µM in assay [2] (setting [11]) stood at 45%. In addition, the activity at 10 µM in assay [2] (setting [12]) was 95%. For the same molecule, the activity at 1 µM in assay [2] (setting [13]) came out at 100%. Also, in assay [2] (setting [13]), the activity at 0.1 µM stood at 100%.
In the case of `CCCCCCCCCCCCCCCC(O)C(N)CO` (centres unmarked) [dihydrosphingosine], the Prolactin in assay [1] (setting [7]) amounted to 66.0 ± 4.2 ng/mL; in assay [1] (setting [8]), 60.0 ± 2.8 ng/mL; in assay [3] (setting [14]), 81.0 ± 11.0 ng/mL; in assay [3] (setting [15]) it was 74.0 ± 6.0 ng/mL. The inhibition in vivo at 0.5 mg/kg in assay [1] (setting [17]) worked out at 0%. For the same molecule, the inhibition in vivo at 5 mg/kg in assay [1] (setting [17]) came to 0%. For the same molecule, in assay [2] (setting [18]), the activity at 100 µM was 100%. In addition, the activity at 10 µM in assay [2] (setting [19]) stood at 100%. The activity at 1 µM in assay [2] (setting [20]) came to 100%. Further, in assay [2] (setting [20]), the activity at 0.1 µM was 100%.
For `CCCCCCCCCCCCCC=CC(O)C(N)COC1OC(CO)C(O)C(O)C1O` (centres unmarked) [psychosine, Psychosine or galactosylsphingosine], the Prolactin in assay [1] (setting [7]) came to 50.0 ± 5.0 ng/mL; in assay [1] (setting [8]) it was 41.0 ± 5.0 ng/mL; in assay [3] (setting [14]) it was 70.0 ± 6.0 ng/mL; in assay [3] (setting [15]) it was 61.0 ± 7.0 ng/mL. In addition, the inhibition in vivo at 0.5 mg/kg in assay [1] (setting [17]) was 14%. Further, the inhibition in vivo at 5 mg/kg in assay [1] (setting [17]) came to 30%. Also, in assay [2] (setting [18]), the activity at 100 µM is 60%. Besides, in assay [2] (setting [19]), the activity at 10 µM was 90%. Further, in assay [2] (setting [20]), the activity at 1 µM was 100%. Further, the activity at 0.1 µM in assay [2] (setting [20]) was found to be 100%.
For `CCCCCCCCCCCCC/C=C/[C@@H](O)[C@@H](N)CO` [sphingosine], the “Product bound % (^3H-GABA binding on rat cortex membranes)” value came to 100% in assay [6] (test substance 10^-4 M, 100 µM); 100% in assay [6] (test substance 10^-5 M, 10 µM); 100% in assay [6] (test substance 10^-6 M, 1 µM); 100% in assay [6] (test substance 10^-7 M, 0.1 µM); 100% in assay [6] (test substance 10^-8 M, 0.01 µM). For the same molecule, in assay [6] (summary of Table I), the “in vitro biological activity (GABA binding), in words” value is reported as “no biological activity”. The “Prolactin Inhibition %” value in assay [1] (setting [7]), in assay [1] (setting [8]) and in assay [3] (setting [14]) was 0% in each case. For the same molecule, the inhibition in vivo at 0.5 mg/kg in assay [1] (setting [9]) and in assay [3] was 0% in each case. In assay [1] (setting [10]), the inhibition in vivo at 5 mg/kg stood at 0%. Besides, the activity at 100 µM in assay [2] (setting [11]) is 100%. In assay [2] (setting [12]), the activity at 10 µM stood at 100%. Also, the activity at 1 µM in assay [2] (setting [13]) amounted to 100%. Besides, the activity at 0.1 µM in assay [2] (setting [13]) amounted to 100%. Besides, the “Latency of the convulsions measured” value in assay [5] (setting [21]) came out at 3700 ± 200 s. Also, the “Number of animals in convulsions” value in assay [5] (setting [21]) is 20/30. In addition, the “Number of dead animals” value in assay [5] (setting [21]) is given as 9.
Turning to `CN1C[C@H](C(=O)O)C=C2c3cccc4[nH]cc(c34)C[C@H]21` [lysergic acid], the Prolactin came to 61.0 ± 3.8 ng/mL in assay [1] (setting [7]), 52.0 ± 6.2 ng/mL in assay [1] (setting [8]), 76.0 ± 9.0 ng/mL in assay [3] (setting [14]) and 73.0 ± 10.0 ng/mL in assay [3] (setting [15]). The inhibition in vivo at 0.5 mg/kg was 0% in assay [1] (setting [9]) and 13% in assay [3]. The inhibition in vivo at 5 mg/kg in assay [1] (setting [10]) turned out to be 20%; in assay [3] it was 16%. Besides, the “in vivo … in words” value in assay [1] is “essentially inactive when administered alone”. Also, the activity at 100 µM in assay [2] (setting [11]) was determined as 60%. In addition, the activity at 10 µM in assay [2] (setting [12]) was 90%. Besides, the activity at 1 µM in assay [2] (setting [13]) came to 100%. In addition, the activity at 0.1 µM in assay [2] (setting [13]) was 100%.
`CCCCCCCCCCCCCC=CC(O)C(CO)NC(=O)[C@@H]1C=C2c3cccc4[nH]cc(c34)C[C@H]2N(C)C1` (some centres unmarked) [Product 2.2, Lysergylsphingosine-amide]: the Prolactin in assay [1] (setting [7]) stood at 48.0 ± 4.8 ng/mL; in assay [1] (setting [8]), 40.0 ± 2.6 ng/mL; in assay [3] (setting [14]), 59.0 ± 6.0 ng/mL; in assay [3] (setting [15]), 49.0 ± 5.0 ng/mL. The values for the inhibition in vivo at 0.5 mg/kg in assay [1] (setting [9]) and in assay [3] were 27% and 32%, respectively. For the same molecule, the inhibition in vivo at 5 mg/kg in assay [1] (setting [10]) came out at 39%; in assay [3], 44%. For the same molecule, the “in vivo … in words” value in assay [1] was “far superior to either lysergic acid or sphingosine alone”. Further, in assay [2], the “binding power / in vitro activity, in words” value is “far superior to either lysergic acid or sphingosine alone”. The activity at 100 µM in assay [2] (setting [11]) came out at 35%. Besides, the activity at 10 µM in assay [2] (setting [12]) was 55%. Further, in assay [2] (setting [13]), the activity at 1 µM came out at 85%. Moreover, the activity at 0.1 µM in assay [2] (setting [13]) came out at 100%.
